Experimental data from patent US20220016101A1 (ACADIA Pharmaceuticals Inc., priority 2018, published 2022).

Tested on: patients with MDD and an inadequate response to an SSRI or SNRI
Assay: Massachusetts General Hospital Sexual Functioning Index (MGH-SFI), Study ACP-103-042
Type: in vivo, human
Excerpt: “Massachusetts General Hospital Sexual Functioning Index (MGH-SFI)” is described, for instance, in Labbate and Lare, 2001, Psychother Psychosom. 70(4):221-225. This is a patient facing questionnaire that quantifies sexual dysfunction into 5 functional domains (“interest in sex,” “sexual arousal,” “ability to achieve orgasm,” “ability to maintain erection” (males only), and “sexual satisfaction”). Patients rate each item using a 6-point scale ranging from 1 (good function) to 6 (poor function). High scores indicate poor sexual functioning. […] The determination of the subject's status and eligibility for randomization in Stage 2 was made in a double-blind manner. […] Sexual functioning was assessed using the Massachusetts General Hospital Sexual Functioning Index or MGH-SFI (Labbate and Lare, 2001, Psychother Psychosom. 70(4):221-225). This is a patient facing questionnaire that quantifies sexual dysfunction into 5 functional domains (“interest in sex,” “sexual arousal,” “ability to achieve orgasm,” “ability to maintain erection” [malesonly], and “sexual satisfaction”). Patients rate each item using a 6-point scale ranging from 1 (good function) to 6 (poor function). The time frame for this scale is the past month. This scale was administered at baseline and Week 5 in both stages of the study. High scores indicate poor sexual functioning. In ACP-103-042 the mean scores for MGH-SFI at Baseline was calculated over all 5 domains for males and the 4 domains for females. For MGH-SFI (follow-up version) at Study Weeks 5 and 10, the mean was calculated in the same way as MGH-SFI at Baseline. […] Tables 10-27 summarize the detailed data of MGH-SFI individual items of the overall study group (Tables 10-15), the subgroup of age of <=50 (Tables 16-21) and the subgroup of age of >50 (Table 21-26). In Tables 9-26, ANCOVA=analysis of covariance; OC=observed cases; LSM=least squares mean; CI=confidence interval; SD=standard deviation; SE=standard error. Stage 1: Baseline=Study Week 0, Week 5=Study Week 5; Stage 2: Baseline=Study Week 5, Week 5=Study Weeks 10. LSM from the stage-specific ANCOVA analysis with the change from baseline as the outcome, treatment group as a factor, and the corresponding Baseline value as a covariate. 2-sided p-value for treatment difference from the stage-specific ANCOVA analysis. An treatment effect size (Cohen's d) is calculated using the formula: Effect Size=Least Square mean difference between PIM and PBO/SD. The corresponding 95% confidence interval for an effect size is calculated based on the theoretical probability distribution of the effect size. […] Tables 10-15 and 28-38 summarize the detailed data of MGH-SFI individual items of the overall study group (Tables 10-15), the female subgroup (Tables 33-37) and the male subgroup (Table 38-43). An treatment effect size (Cohen's d) is calculated using the formula: Effect Size=Least Square mean difference between PIM and PBO/SD. The corresponding 95% confidence interval for an effect size is calculated based on the theoretical probability distribution of the effect size. In Tables 10-15 and 28-38, ANCOVA=analysis of covariance; OC=observed cases; LSM=least squares mean; CI=confidence interval; SD=standard deviation; SE=standard error. Stage 1: Baseline=Study Week 0, Week 5=Study Week 5; Stage 2: Baseline=Study Week 5, Week 5=Study Weeks 10. LSM from the stage-specific ANCOVA analysis with the change from baseline as the outcome, treatment group as a factor, and the corresponding Baseline value as a covariate. 2-sided p-value for treatment difference from the stage-specific ANCOVA analysis. An treatment effect size (Cohen's d) is calculated using the formula: Effect Size=Least Square mean difference between PIM and PBO/SD. The corresponding 95% confidence interval for an effect size is calculated based on the theoretical probability distribution of the effect size.

[1] = subgroup <=50 years old, Stage 1, PIM 34 mg vs placebo
[2] = subgroup <=50 years old, Stage 2, PIM 34 mg
[3] = subgroup <=50 years old, Stage 2, PIM 34 mg vs placebo
[4] = subgroup >50 years old, Stage 1, PIM 34 mg
[5] = subgroup >50 years old, Stage 1, PIM 34 mg vs placebo

CC(C)COc1ccc(CNC(=O)N(Cc2ccc(F)cc2)C2CCN(C)CC2)cc1 [pimavanserin, N-(4-Fluorophenylmethyl)-N-(1-methylpiperidin-4-yl)-N′-(4-(2-methylpropyloxy)phenylmethyl)carbamide]
MGH-SFI 05: Overall Sexual Satisfaction, Effect Size (Cohen's d) [1]: 0.304 | MGH-SFI 06: Overall Improvement Since Last Medication Change, Effect Size (Cohen's d) [1]: 0.622 | MGH-SFI 04: (Men) Ability to Get and Maintain an Erection, Change from Baseline to Week 5 Mean (SE) [2]: −0.3 (0.48) | MGH-SFI 04: (Men) Ability to Get and Maintain an Erection, Change from Baseline to Week 5 Median [2]: −0.5 | MGH-SFI 04: (Men) Ability to Get and Maintain an Erection, Week 5 Mean (SE) [2]: 3.5 (0.50) | MGH-SFI 04: (Men) Ability to Get and Maintain an Erection, Week 5 Median [2]: 4.0 | MGH-SFI 05: Overall Sexual Satisfaction, Change from Baseline to Week 5 Mean (SE) [2]: −0.6 (0.34) | MGH-SFI 05: Overall Sexual Satisfaction, Change from Baseline to Week 5 Median [2]: −1.0 | MGH-SFI 05: Overall Sexual Satisfaction, Week 5 Mean (SE) [2]: 4.0 (0.39) | MGH-SFI 05: Overall Sexual Satisfaction, Week 5 Median [2]: 4.0 | MGH-SFI 06: Overall Improvement Since Last Medication Change, Week 5 Mean (SE) [2]: 3.8 (0.33) | MGH-SFI 06: Overall Improvement Since Last Medication Change, Week 5 Median [2]: 4.0 | MGH-SFI 04: (Men) Ability to Get and Maintain an Erection, Effect Size (Cohen's d) [3]: −0.526 | MGH-SFI 05: Overall Sexual Satisfaction, Effect Size (Cohen's d) [3]: 0.405 | MGH-SFI 06: Overall Improvement Since Last Medication Change, Effect Size (Cohen's d) [3]: 0.043 | MGH-SFI 02: Ability to Get Sexually Aroused or Excited, Change from Baseline to Week 5 Mean (SE) [4]: −0.9 (0.21) | MGH-SFI 02: Ability to Get Sexually Aroused or Excited, Change from Baseline to Week 5 Median [4]: −1.0 | MGH-SFI 02: Ability to Get Sexually Aroused or Excited, Week 5 Mean (SE) [4]: 3.9 (0.32) | MGH-SFI 02: Ability to Get Sexually Aroused or Excited, Week 5 Median [4]: 4.0 | MGH-SFI 03: Ability to Achieve Orgasm, Change from Baseline to Week 5 Mean (SE) [4]: −1.2 (0.33) | MGH-SFI 03: Ability to Achieve Orgasm, Change from Baseline to Week 5 Median [4]: 0.0 | MGH-SFI 03: Ability to Achieve Orgasm, Week 5 Mean (SE) [4]: 3.8 (0.33) | MGH-SFI 03: Ability to Achieve Orgasm, Week 5 Median [4]: 4.0 | MGH-SFI 04: (Men) Ability to Get and Maintain an Erection, Change from Baseline to Week 5 Mean (SE) [4]: 0.8 (0.48) | MGH-SFI 04: (Men) Ability to Get and Maintain an Erection, Change from Baseline to Week 5 Median [4]: 0.5 | MGH-SFI 04: (Men) Ability to Get and Maintain an Erection, Week 5 Mean (SE) [4]: 5.0 (0.71) | MGH-SFI 04: (Men) Ability to Get and Maintain an Erection, Week 5 Median [4]: 5.5 | MGH-SFI 05: Overall Sexual Satisfaction, Change from Baseline to Week 5 Mean (SE) [4]: −1.1 (0.34) | MGH-SFI 05: Overall Sexual Satisfaction, Change from Baseline to Week 5 Median [4]: 0.0 | MGH-SFI 05: Overall Sexual Satisfaction, Week 5 Mean (SE) [4]: 4.1 (0.34) | MGH-SFI 05: Overall Sexual Satisfaction, Week 5 Median [4]: 4.0 | MGH-SFI 06: Overall Improvement Since Last Medication Change, Week 5 Mean (SE) [4]: 3.3 (0.24) | MGH-SFI 06: Overall Improvement Since Last Medication Change, Week 5 Median [4]: 4.0 | MGH-SFI 02: Ability to Get Sexually Aroused or Excited, Effect Size (Cohen's d) [5]: 0.660 | MGH-SFI 03: Ability to Achieve Orgasm, Effect Size (Cohen's d) [5]: 0.869
